In article PMC9503459, “Antifungal Activity, Structural Stability, and Immunomodulatory Effects on Human Immune Cells of Defensin from the Lentil Lens culinaris” (Membranes, 2022):
No end group written: not given here.

Legend:
[1] = system: phytopathogenic filamentous fungi including Aspergillus niger; conditions: some, but not all, tested fungi including Aspergillus niger; cited from earlier work
[2] = system: monocyte-derived mature dendritic cells (moDCs); experiment: Cytokine response by multiplex xMAP, moDCs; assay type: cell-based, human; conditions: 2 µM, 24 h
Method: Colorectal adenocarcinoma Caco-2 cell line (ATCC HTB-37) was cultured in complete DMEM/F12 (1:1) medium containing 10% fetal bovine serum (FBS, Gibco) and 1X antibiotic-antimycotic solution (1XAAS, Invitrogen, Waltham, MA, USA). The acute monocytic leukemia THP-1 line (ATCC TIB-202) was cultured in complete RPMI-1640 medium, containing 10% FBS, 1XAAS, and […]. THP-1 cells were differentiated into pro-inflammatory macrophages (Mφ1) with phorbol 12-myristate 13-acetate (Sigma-Aldrich) for 24 h and subsequently polarized with lipopolysaccharide from E. coli (Sigma-Aldrich) and rhIFN-γ (Sigma-Aldrich) for another 48 h according to previously reported protocol. All cells were cultured in a humidified CO2 incubator (5% CO2, 37 °C). Primary peripheral blood mononuclear cells (PBMCs) collected from a healthy donor were purchased from American Type Culture Collection (ATCC PCS-800-011). CD4^+ T-helper and CD8^+ T cytotoxic cells were isolated from PBMCs by magnetic separation with mouse anti-human CD4-PE (clone 13B8.2, Beckman Coulter Diagnostics, Pasadena, CA, USA) and CD8-PE (clone REA734, Miltenyi Biotec, Bergisch Gladbach, Germany), Anti-PE MicroBeads (Miltenyi Biotec), and LS Separation Columns (Miltenyi Biotec). Isolated CD4^+ and CD8^+ cells were expanded separately with Dynabeads™ Human T-Expander CD3/CD28 (Gibco, Waltham, MA, USA) in RPMI-1640 supplemented with 10% FBS, 1XAAS and 100 U/mL rh-IL-2 (Gibco). Regulatory CD4^+ FoxP3^+ T cells (Tregs) were isolated from PBMCs by magnetic separation with CD4^+CD25^+ Regulatory T Cell Isolation Kit, human (Miltenyi Biotec). Primary CD14^+ blood monocytes were isolated from PBMCs by adherence according to standard technique. Monocyte-derived mature dendritic cells (moDCs) were obtained from CD14^+ blood monocytes according to the previously reported protocol. Briefly, blood monocytes were incubated in complete RPMI-1640 medium, containing 10% FBS, 1XAAS, 800 U/mL rhGM-CSF (Sci-Store, Russia, Moscow) and 500 U/mL rhIL-4 (Sci-Store) for 3 days. Fresh complete RPMI-1640 medium with rhGM-CSF and rhIL-4 was added to the culture on day 3. On day 5, fresh complete RPMI-1640 containing 100 U/mL rhTNF-α (Sigma) as well as 800 U/mL rhGM-CSF and 500 U/mL rhIL-4 was added and the culture was incubated for another 4 days until full maturation.
Caco-2 cells were seeded into the wells of a 48-well plate, coated with 0.1% bovine collagen (Sigma-Aldrich) for 24 h, 3 weeks before the experiment with complete DMEM/F12 (1:1) medium renewal every 2–3 days. Monocytes, moDCs, CD4^+ T-helper and CD8^+ T cytotoxic cells, Mφ1, and Regulatory CD4^+ FoxP3^+ T cells were seeded into the wells of 48-well plates in the complete RPMI-1640 medium supplemented with 10% Human AB serum (HABS, Capricorn Scientific, Ebsdorfergrund, Germany) and 1XAAS 24 h prior to the experiment; medium in Caco-2-containing wells was also replaced with the same medium. After 24 h, half of the medium in each well was replaced by fresh complete RPMI-1640 medium with 10% HABS, supplemented with 4 µM of Lc-def for the sample wells or fresh medium alone for the control wells. Cell cultures were kept in CO2-incubator (5% CO2, 37 °C) for another 24 h. Culture supernatants were collected 24 h later and stored at −70 °C degrees less than one month prior to the analytes assessment. […]

Question: With “Lc-def: defensin from lentil Lens culinaris seeds (UniProt:B3F051), recombinant, overexpressed in Escherichia coli (KTCENLSDSFKGPCIPDGNCNKHCKEKEHLLSGRCRDDFRCWCTRNC; disulfide (positions not given here); ends not checked; also: disulfide bonds present, pairing not given here; UniProt B3F051 28-74, looked up)” as the substance, how does the “activity against phytopathogenic filamentous fungi” value [1] read?
Answer: The value was “active”.

Question: And the EGF [2]?
Answer: The EGF was 2.16 pg/mL.

Question: And the Eotaxin [2]?
Answer: Its Eotaxin is <3.23↓ pg/ml.

Question: What about the FGF-2 [2] of the same substance?
Answer: Its FGF-2 is 34.19 pg/mL.

Question: What about the FLT-3L [2] of the same substance?
Answer: The FLT-3L was 0.84 pg/mL.

Question: And the Fractalkine [2]?
Answer: Its Fractalkine is <23.19↓ pg/ml.

Question: What about the G-CSF [2] of the same substance?
Answer: The G-CSF was 4.71 pg/mL.

Question: And the GM-CSF [2]?
Answer: The GM-CSF was 10.34 pg/mL.

Question: And the GROa [2]?
Answer: Its GROa is <0.67↓ pg/ml.

Question: And the IFNa2 [2]?
Answer: The IFNa2 was 7.77 pg/mL.

Question: What about the IFNg [2] of the same substance?
Answer: The IFNg was 3.79 pg/mL.

Question: And the IL-1RA [2]?
Answer: The IL-1RA was 37.33 pg/mL.

Question: What about the IL-1a [2] of the same substance?
Answer: Its IL-1a is 20.45 pg/mL.

Question: What about the IL-1b [2] of the same substance?
Answer: Its IL-1b is <18.72↓ pg/ml.

Question: What about the IL-2 [2] of the same substance?
Answer: Its IL-2 is 0.98 pg/mL.

Question: And the IL-3 [2]?
Answer: The IL-3 was <0.48↓ pg/ml.

Question: What about the IL-4 [2] of the same substance?
Answer: Its IL-4 is <0.31↓ pg/ml.

Question: And the IL-5 [2]?
Answer: The IL-5 was 2.41 pg/mL.

Question: What about the IL-6 [2] of the same substance?
Answer: Its IL-6 is 1.12 pg/mL.

Question: What about the IL-7 [2] of the same substance?
Answer: Its IL-7 is <0.33↓ pg/ml.

Question: And the IL-8 [2]?
Answer: The IL-8 was 162.8 pg/mL.

Question: What about the IL-9 [2] of the same substance?
Answer: The IL-9 was 4.1 pg/mL.

Question: And the IL-10 [2]?
Answer: Its IL-10 is 14.42 pg/mL.

Question: What about the “IL-12 (p40)” value [2] of the same substance?
Answer: The value was 19.56 pg/mL.

Question: And the “IL-12 (p70)” value [2]?
Answer: The value was <1.48↓ pg/ml.

Question: What about the IL-13 [2] of the same substance?
Answer: Its IL-13 is 11.42 pg/mL.

Question: What about the IL-15 [2] of the same substance?
Answer: The IL-15 was 15.16 pg/mL.

Question: And the IL-17A [2]?
Answer: Its IL-17A is <1.55↓ pg/ml.

Question: And the IL-17E/IL-25 [2]?
Answer: Its IL-17E/IL-25 is <20.59↓ pg/ml.

Question: And the IL-17F [2]?
Answer: The IL-17F was <16.96↓ pg/ml.

Question: And the IL-18 [2]?
Answer: Its IL-18 is 2.04 pg/mL.

Question: What about the IL-22 [2] of the same substance?
Answer: Its IL-22 is 9.4 pg/mL.

Question: And the IL-27 [2]?
Answer: Its IL-27 is 51.46 pg/mL.

Question: What about the IP-10 [2] of the same substance?
Answer: Its IP-10 is 1871 pg/mL.

Question: What about the M-GSF [2] of the same substance?
Answer: The M-GSF was 78 pg/mL.

Question: And the MCP-1 [2]?
Answer: Its MCP-1 is 782.17 pg/mL.

Question: What about the MCP-3 [2] of the same substance?
Answer: The MCP-3 was 29.76 pg/mL.

Question: And the MDC [2]?
Answer: The MDC was 1903 pg/mL.

Question: What about the MIG [2] of the same substance?
Answer: Its MIG is 33510 pg/mL.

Question: What about the MIP-1a [2] of the same substance?
Answer: Its MIP-1a is 119.77 pg/mL.

Question: What about the MIP-1b [2] of the same substance?
Answer: Its MIP-1b is 243.76 pg/mL.

Question: And the PDGF-AA [2]?
Answer: Its PDGF-AA is 51.36 pg/mL.

Question: What about the PDGF-AB/BB [2] of the same substance?
Answer: Its PDGF-AB/BB is 107.03 pg/mL.

Question: And the RANTES [2]?
Answer: Its RANTES is 15.66 pg/mL.

Question: And the TGF-a [2]?
Answer: The TGF-a was 75.94 pg/mL.

Question: What about the TNFa [2] of the same substance?
Answer: Its TNFa is 21.61 pg/mL.

Question: What about the TNFb [2] of the same substance?
Answer: Its TNFb is <0.73↓ pg/ml.

Question: And the VEGFa [2]?
Answer: The VEGFa was <1.27↓ pg/ml.

Question: What about the “changes in cytokine profiles” value [2] of the same substance?
Answer: Its value is “did not induce significant changes”.

Question: And the sCD40L [2]?
Answer: The sCD40L was 84.33 pg/mL.
